Consider one compound from ChEMBL document CHEMBL1138953 (Bioorg Med Chem Lett, 2006).

Each structure is given as a SMILES string.

One experiment concerns the target Cannabinoid receptor 1 (Homo sapiens, UniProt P21554). The experiment in a line: Displacement of [3H]CP-55-940 from human recombinant CB1 receptor in COS cells. The format is cell-based. A general note: Displacement assays read how much labelled ligand stays bound in the presence of the test substance.
In a further experiment the target is Cannabinoid receptor 2 (Homo sapiens, UniProt P34972). The experiment in a line: Displacement of [3H]CP-55-940 from human recombinant CB2 receptor in COS cells. The experiment is classed as cell-based.
Cannabinoid receptor 2, sequence (P34972 whole entry): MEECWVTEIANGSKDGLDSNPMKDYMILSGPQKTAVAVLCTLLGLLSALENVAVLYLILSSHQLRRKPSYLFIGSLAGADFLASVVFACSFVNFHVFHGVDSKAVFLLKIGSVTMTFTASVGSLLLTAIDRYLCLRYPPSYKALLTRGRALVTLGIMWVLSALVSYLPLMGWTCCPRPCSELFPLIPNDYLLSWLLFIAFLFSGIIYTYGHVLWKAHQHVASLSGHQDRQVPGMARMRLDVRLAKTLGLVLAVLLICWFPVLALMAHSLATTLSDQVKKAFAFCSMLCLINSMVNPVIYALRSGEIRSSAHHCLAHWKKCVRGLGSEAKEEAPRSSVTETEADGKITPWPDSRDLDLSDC

Cannabinoid receptor 1, sequence (P21554 whole entry): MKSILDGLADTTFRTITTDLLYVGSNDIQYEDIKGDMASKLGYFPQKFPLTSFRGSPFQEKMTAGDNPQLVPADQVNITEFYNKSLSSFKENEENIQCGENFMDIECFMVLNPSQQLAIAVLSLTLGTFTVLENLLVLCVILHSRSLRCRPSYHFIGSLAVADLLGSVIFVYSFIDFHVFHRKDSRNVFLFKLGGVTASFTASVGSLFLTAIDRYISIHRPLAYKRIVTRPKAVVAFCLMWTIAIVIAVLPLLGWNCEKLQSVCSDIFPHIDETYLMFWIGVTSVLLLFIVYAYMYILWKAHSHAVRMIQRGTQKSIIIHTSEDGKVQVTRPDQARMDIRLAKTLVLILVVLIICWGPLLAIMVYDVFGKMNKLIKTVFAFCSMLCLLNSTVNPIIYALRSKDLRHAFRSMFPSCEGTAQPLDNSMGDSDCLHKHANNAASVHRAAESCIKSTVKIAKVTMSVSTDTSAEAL

In the case of `C[C@H](CO)NC(=O)CCC/C=C\C/C=C\C/C=C\C/C=C\CCOC(=O)c1cc(I)ccc1N=[N+]=[N-]`, the results for the Ki on Cannabinoid receptor 1 and at Cannabinoid receptor 2 were 570 nM and 220 nM, respectively.
